Common to all, as to type: in vivo
For assay [1], the system named is spring wheat (cv. Passat). Nature of the assay: Spring wheat pot trial, moderate drought stress (Example 3). Here is the method: Spring wheat (cv. Passat) was cultivated in Mitcherlich pots as described above in example 1. The experiment was conducted with 6 replications in a vegetation hall. Experiments were carried out under semi controlled conditions at very low disease-pressure with insignificant infection rates, protected from any undesired rain or water impact. The water consumption of each pot was calculated on the basis of the recorded measurements of the weight of the pots prior to each irrigation event up to the defined set point. Pots without crop coverage were used to estimate the evaporation of the soil.
Nitrogen fertilizer (totally 1.75 g N/pot) was added in equal amounts at 3 stages to allow optimal growth conditions throughout the life cycle. All plants/pots were grown at optimal water supply by watering 2-3 times a day to 60% of the water holding capacity of the soil until growth stage 55 (BBCH). Then, pots were only watered to 30% of the maximum water holding capacity of the soil to apply moderate drought stress. Compound Ia (62.5 g/l, 2 L in 400 L water/ha) was applied at growth stage 39/49 (BBCH scale), which is an EC formulation of comound Ia. Control plants were not treated.
At maturity of the plants the grain was harvested and uniformly dried to 5% moisture content. Number of grains per pot was counted after harvest. Thousand Grain Weight (TGW), as an indicator of plant yield, was calculated based on grain yield per pot and number of grains per pot. Transpiration was calculated on the basis of the amount of water added to the respective pots and the estimated soil evaporation. Water use efficiency, as an indicator of drought stress tolerance of a plant, was calculated based on the respective transpiration per pot.

A further assay deals with Soybeans (M-SOY 6001 RR). The assay is described as follows: Soybean field trial Brazil, ternary mixture, Colby synergism (Example 7). The settings on record: soybean M-SOY 6001 RR, Ia 40, epoxiconazol 40, pyraclostrobin 65 g a.i./ha. Here is the method:
Soybeans were grown in 2008 at the CEDUP “Caetano Vieira da Costa” in Sao José do Cerrito, Santa […], Brazil. The variety M-SOY 6001 RR was planted in 2007, 11 Nov., at a seeding rate of 300.000 plants per ha. Row spacing was 50 cm. The trial was setup as a randomized bloc design with 4 replications. Plot size was 12.5 m^2. Fungicide treatments were applied at BBCH GS 70-79 (pods reached 15-20 mm of final […]). The fungicides were used as formulations. Compound Ia was applied as an EC formulation (62.5 g/L-EC) at 0.64 L/ha (40 g ai/ha). […] The adjuvant DASH HC was added to the spray tank with 0.3% (v/v). Finally, compound Ia was applied in a mixture together with epoxiconazol and pyraclostrobin forming a ternary mixture according to the present invention, using a coformulation of all three compounds (50 g/L of compound Ia+50 g/L of epoxiconazol+81 g/L of pyraclostrobin-EC). This formulation was sprayed at a rate of 0.8 […] compound […] epoxiconazol+65 g a.i./ha pyraclostrobin). The formulations were diluted in water. Total spray volume for foliar application was 150 L/ha. The trial was conducted under low disease pressure. […] Plots were harvested at maturity of the soybean crop and the yield (thousand grain weight) was determined (table 11). The efficacy in yield increase was calculated as % increase of the Thousand Grain Weight (TGW) by the treatments compared to the untreated control. […]

The test system of assay [2] is spring wheat (cv. Passat). Nature of the assay: Spring wheat pot trial, optimal water supply (Example 1). On the procedure:
Mitcherlich pots of known weight were filled with 5.5 kg of sandy dry soil (pH 6.8) and fertilized (P, K and Mg) to optimal growing conditions. The culture was spring wheat (cv. Passat); 12 plants per pot. The experiment was conducted with 6 replications in a vegetation hall. Experiments were carried out under semi controlled conditions at very low disease-pressure with insignificant infection rates, protected from any undesired rain or water impact. The water consumption of each pot was calculated on the basis of the recorded measurements of the weight of the pots prior to each irrigation event up to the defined set point.
Nitrogen fertilizer (totally 1.75 g N/pot) was added in equal amounts at 3 stages to allow optimal growth conditions throughout the life cycle. All plants/pots were grown at optimal water supply by watering 2-3 times a day to 60% of the water holding capacity of the soil.
Compound Ia (62.5 g/L, 2 L in 400 L water/ha) was applied at growth stage 39/49 (BBCH scale), which is an EC formulation of compound Ia. Control plants were not treated.
Plant Height, as an indicator of plant vigor, was measured after heading. At maturity of the plants the grain, as an indicator of yield, was harvested and uniformly dried to 5% moisture content. Straw yield, as an another indicator of plant yield, was also determined and the number of halms with ear per pot was counted at maturity. Number of grains per pot was counted after harvest. Thousand Grain Weight (TGW), as yet another indicator of plant yield, was calculated based on grain yield per pot and number of grains per pot.

Setting [3] is: moderate drought stress, 2 L/ha EC at BBCH 39/49.

The structures appear in SMILES notation.

Consider `Cn1cc(C(=O)Nc2ccccc2-c2cc(F)c(F)c(F)c2)c(C(F)F)n1` [Compound Ia, N-(3′,4′,5′-trifluorobiphenyl-2-yl)-3-difluoromethyl-1-methyl-1H-pyrazole-4-carboxamide], for which, in assay [1] (moderate drought stress), the “Thousand Grain Weight, change vs untreated control” value was “(+4%)”; the “Transpiration, change vs untreated control” value is given as “(−4%)”; the “Water use efficiency, change vs untreated control” value is on record as “(+3%)”. In addition, the Transpiration in assay [1] (moderate drought stress (30% water holding capacity from BBCH 55), 2 L/ha EC at BBCH 39/49) was 26.5 L water/pot. Moreover, in assay [1] (setting [3]), the “Thousand Grain Weight” value came out at 31.2 g and the Water use efficiency was found to be 2.02 g grain/L water. Besides, in the assay on Soybeans (M-SOY 6001 RR), the “Observed efficacy (% increase of TGW vs untreated control)” value turned out to be 0%. The TGW in the assay with Soybeans (M-SOY 6001 RR) (BBCH 70-79) stood at 153 g. Moreover, in assay [2] (2 L/ha EC at BBCH 39/49), the “Grain yield/pot, change vs untreated control” value is reported as “(+6%)”; the “Number of halms with ear/pot, change vs untreated control” value was “(+16%)”; the “Plant height, change vs untreated control” value is reported as “(+2%)”; the Straw yield is 70.0 g/pot. In assay [2] (2 L/ha EC at BBCH 39/49), the “Straw yield, change vs untreated control” value is on record as “(+6%)”; the “TGW (Thousand Grain Weight)” value is 32.0 g; the “TGW, change vs untreated control” value was “(+2%)”. In assay [2] (2 L/ha EC at BBCH 39/49, at maturity), the “Number of halms with ear/pot” value was 37.5. Further, the Grain yield/pot in assay [2] (2 L/ha EC at BBCH 39/49, grain dried to 5% moisture) amounted to 74.2 g/pot. In assay [2] (EC 62.5 g/L, 2 L in 400 L water/ha at BBCH 39/49, measured after heading), this compound displayed a Plant height of 76.2 cm.

The values are drawn from patent US20110263423A1, “Plant Health Composition” (BASF SE, priority 2008, published 2011).
